Measurements published in patent US20230098438A1, “OXAZINE-BASED WATER-SOLUBLE FLUOROPHORE COMPOUNDS FOR IN VIVO NERVE IMAGING” (Oregon Health & Science University, priority 2020, published 2023).
“Also recorded” adds a separate entry of the source.

Legend:
nerve tissue = conditions: previous studies; fluorescence nerve imaging; cited from earlier work
[1] = Solubility testing in ultrapure water; conditions: kinetic from dmso stock
Description: Each compound was dissolved at high concentration (50 mg/mL) in dimethyl sulfoxide (DMSO) to create a stock solution. Stock solutions were spiked into ultrapure water beginning with a 50 μg/mL concentration and the aqueous solution was vortexed to mix. Resulting solutions were centrifuged at 15,000 rpm for 2 min and examined for a pellet or precipitation signifying insoluble compound.

[2] = NOAEL (no-observed-adverse-effect-level)
[3] = no-observed-adverse-effect-level

Compound | nerve specificity (nerve tissue) | solubility [1] [mg/mL] | NOAEL ([2]; in vivo) [mg/kg] | NOAEL [2, 3] [mg/kg]
CCNc1cc2oc3cc(=[N+](CC)CC)ccc-3nc2cc1C [Comparative Example No. 1, 3-(diethyl-λ4-azaneylidene)-N-ethyl-8-methyl-3H-phenoxazin-7-amine, reference compound] | high nerve specificity | 0.1 | 3 | –
CCNc1cc2oc3c/c(=[N+](\CC)CCCS(=O)(=O)[O-])ccc-3nc2cc1C [Example No. 1, (E)-3-(ethyl(7-(ethylamino)-8-methyl-3H-phenoxazin-3-ylidene)ammonio)propane-1-sulfonate] | – | > 5 | 30 | –
CCNc1cc2oc3cc(=[N+](CCOCCOCCOC)CCOCCOCCOC)ccc-3nc2cc1C [Example No. 9, N-(7-(ethylamino)-8-methyl-3H-phenoxazin-3-ylidene)-2-(2-(2-methoxyethoxy)ethoxy)-N-(2-(2-(2-methoxyethoxy)ethoxy)ethyl)ethan-1-aminium] | – | > 5 | 30 | –
CC/N=c1/cc2oc3cc(NCC)c(C)cc3nc-2cc1C [Oxazine 4] | high nerve-specificity; also recorded: high nerve specificity | – | – | –
(E)-N-ethyl-N-(7-(ethylamino)-8-methyl-3H-phenoxazin-3-ylidene)-2-(2-(2-methoxyethoxy)ethoxy)ethan-1-aminium [Example No. 7] | – | – | – | 5
(E)-N^1-ethyl-N^1-(7-(ethylamino)-8-methyl-3H-phenoxazin-3-ylidene)-N^3,N^3,N^3-trimethylpropane-1,3-diaminium [Example No. 2] | – | – | – | 2
N-(7-(ethylamino)-8-methyl-3H-phenoxazin-3-ylidene)-2-(2-methoxyethoxy)-N-(2-(2-methoxyethoxy)ethyl)ethan-1-aminium [Example No. 8] | – | – | – | 10
N-(7-(ethylamino)-8-methyl-3H-phenoxazin-3-ylidene)-2-methoxy-N-(2-methoxyethyl)ethan-1-aminium [Example No. 5] | – | – | – | 4
